Measured values published in patent US11149036B2, “3-(1H-pyrazol-4-yl)pyridine allosteric modulators of the M4 muscarinic acetylcholine receptor” (Merck Sharp & Dohme Corp., priority 2017, dated 2021).

Target: T1, human M4 muscarinic acetylcholine receptor (Homo sapiens, UniProt P08173)
T1 construct: expressed in transfected cells; host or cells: CHO-K1
T1 sequence (P08173 1-479): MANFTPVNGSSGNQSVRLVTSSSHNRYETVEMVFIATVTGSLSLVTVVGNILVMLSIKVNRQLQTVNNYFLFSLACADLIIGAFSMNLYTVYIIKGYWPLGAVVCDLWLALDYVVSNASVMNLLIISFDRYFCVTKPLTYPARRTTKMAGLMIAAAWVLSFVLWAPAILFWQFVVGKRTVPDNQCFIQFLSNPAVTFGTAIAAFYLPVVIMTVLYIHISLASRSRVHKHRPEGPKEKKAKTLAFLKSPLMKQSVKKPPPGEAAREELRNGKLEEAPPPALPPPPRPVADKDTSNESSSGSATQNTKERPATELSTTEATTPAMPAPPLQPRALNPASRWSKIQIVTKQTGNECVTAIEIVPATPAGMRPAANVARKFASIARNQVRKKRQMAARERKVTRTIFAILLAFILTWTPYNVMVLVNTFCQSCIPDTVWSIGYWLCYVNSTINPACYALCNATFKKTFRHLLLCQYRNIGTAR
Test: human FLIPR-based M4 PAM assay (CHO-K1 cells with human M4 receptor and Gaqi5, calcium dye fluorescence)
Format: cell-based
Conditions: inflection point (IP) of dose response curve, acetylcholine added at 20% of maximum response, read-out: M4 FLIPPR Hu IP
Outline: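 CHO-K1 cells stably expressing human M4 with chimeric Gaqi5, calcium-dye loaded ~1 h at 37° C; compound added at increasing concentrations 4 min before acetylcholine at an EC20 concentration (sometimes a further EC70 addition).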

Structure (SMILES) | EC50
CC1(Cn2cc(-c3ccc(C#N)nc3-c3ccn4nccc4c3)cn2)CCCC1 [Example 79, 5-(1-((1-methylcyclopentyl)methyl)-1H-pyrazol-4-yl)-6-(pyrazolo[1,5-a]pyridin-5-yl) picolinonitrile] | 80 nM
Cc1ccc(-c2cnn(CC3(F)CCCC3)c2)c(-c2ccc3c(c2)C(=O)N(C2CC2)C3)n1 [Example 20, 2-cyclopropyl-6-(3-(1-((1-fluorocyclopentyl)methyl)-1H-pyrazol-4-yl)-6-methylpyridin-2-yl)isoindolin-1-one] | 24 nM
N#Cc1ccc(-c2cnn(CC3(F)CCCC3)c2)c(-c2ccn3cc(CF)nc3c2)n1 [Example 135, 5-(1-((1-fluorocyclopentyl)methyl)-1H-pyrazol-4-yl)-6-(2-(fluoromethyl)imidazo[1,2-a]pyridin-7-yl)picolinonitrile] | 24 nM
Cc1cn2ccc(-c3nc(C#N)ccc3-c3cnn(C[C@H]4CC[C@H](F)C4)c3)cc2n1 [Example 69, 5-(1-(((1S,3S)-3-fluorocyclopentyl)methyl)-1H-pyrazol-4-yl)-6-(2-methylimidazo[1,2-a]pyridin-7-yl)picolinonitrile] | 25 nM
N#Cc1ccc(-c2cnn(CC3(F)CCCC3)c2)c(-c2ccn3cc(C(F)(F)F)nc3c2)n1 [Example 51, 5-(1-((1-fluorocyclopentyl)methyl)-1H-pyrazol-4-yl)-6-(2-(trifluoromethyl)imidazo [1,2-a]pyridin-7-yl)picolinonitrile] | 22 nM
Cc1cn2ccc(-c3nc(Cl)ccc3-c3cnn(CC4(C)CCCC4)c3)cc2n1 [Example 115, 7-(6-chloro-3-(1-((1-methylcyclopentyl)methyl)-1H-pyrazol-4-yl)pyridin-2-yl)-2-methylimidazo[1,2-a] pyridine] | 21 nM
CN1C(=O)c2cc(-c3nc(C#N)ccc3-c3cnn(CC4(F)CCCC4)c3)ccc2C1(C)C [Example 45, 5-(1-((1-fluorocyclopentyl)methyl)-1H-pyrazol-4-yl)-6-(1,1,2-trimethyl-3-oxoisoindolin-5-yl)picolinonitrile] | 64 nM
N#Cc1ccc(-c2cnn(CC3(F)CCCC3)c2)c(-c2ccc3c(c2)C(=O)N(C2CC2)C3)n1 [Example 40, 6-(2-cyclopropyl-3-oxoisoindolin-5-yl)-5-(1-((1-fluorocyclopentyl)methyl)-1H-pyrazol-4-yl) picolinonitrile] | 13 nM

Results, then the molecule that gave them:

EC50 | Structure (SMILES)
17 nM | Cc1ccc(-c2cnn(C[C@@H]3CC[C@H](F)C3)c2)c(-c2ccc3cccnc3c2)n1 (single isomer, unassigned) [Example 133, 7-(3-(1-(((1R,3S) or (1S,3R)-3-fluorocyclopentyl)methyl)-1H-pyrazol-4-yl)-6-methylpyridin-2-yl)quinoline]
10 nM | Cc1ccc(-c2cnn(CC34CCC(CC3)C4)c2)c(-c2ccc3cccnc3c2)n1 [Example 26, 7-(3-(1-(bicyclo[2.2.1]heptan-1-ylmethyl)-1H-pyrazol-4-yl)-6-methylpyridin-2-yl)quinoline]
200 nM | COc1cc2ccc(-c3nc(C)ccc3-c3cnn(CC4(C)CCC(=O)C4)c3)cc2nn1 (single isomer, unassigned; isomer a) [Example 149, 3-((4-(2-(3-methoxycinnolin-7-yl)-6-methylpyridin-3-yl)-1H-pyrazol-1-yl)methyl)-3-methylcyclopentan-1-one isomer A]
20 nM | FC(F)(F)c1ccc(-c2cnn(CC3CCCC3)c2)c(-c2ccc3cccnc3c2)n1 [Example 104, 7-(3-(1-(cyclopentylmethyl)-1H-pyrazol-4-yl)-6-(trifluoromethyl)pyridin-2-yl)quinoline]
26 nM | Cc1ccc(-c2cnn(CC3(F)CCCC3)c2)c(-c2ccc3c(c2)C(=O)NC3)n1 [Example 17, 6-(3-(1-((1-fluorocyclopentyl)methyl)-1H-pyrazol-4-yl)-6-methylpyridin-2-yl)isoindolin-1-one]
